Source: article PMC9514659, “Giardia duodenalis: Flavohemoglobin is involved in drug biotransformation and resistance to albendazole” (PLoS Pathogens, 2022)

Target: T1, flavohemoglobin (gFlHb) (Giardia duodenalis, UniProt E2RTZ4)
T1 construct: gene hmpA; recombinant gFlHb fused to an N-terminal His6-tag
Assay: UV-visible spectral titration of ferric heme at […] nm (also stimulates NADH oxidase activity)
Assay type: binding

T1 sequence (E2RTZ4 whole entry, the tested form may be a part): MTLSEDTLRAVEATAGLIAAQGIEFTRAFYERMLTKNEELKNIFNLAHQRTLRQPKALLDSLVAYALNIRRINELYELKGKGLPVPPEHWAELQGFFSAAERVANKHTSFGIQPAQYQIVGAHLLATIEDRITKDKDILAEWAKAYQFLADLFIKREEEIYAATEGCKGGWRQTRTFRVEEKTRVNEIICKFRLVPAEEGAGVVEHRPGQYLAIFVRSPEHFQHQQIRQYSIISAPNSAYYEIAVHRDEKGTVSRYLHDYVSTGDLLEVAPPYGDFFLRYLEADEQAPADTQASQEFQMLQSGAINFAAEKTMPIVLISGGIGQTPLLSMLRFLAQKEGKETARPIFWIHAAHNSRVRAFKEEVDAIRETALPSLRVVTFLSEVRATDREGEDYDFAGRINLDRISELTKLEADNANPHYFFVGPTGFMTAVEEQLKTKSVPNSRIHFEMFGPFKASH

Row | Compound | Kd [nM]
1 | CCCSc1ccc2nc(NC(=O)OC)[nH]c2c1 [ABZ, albendazole] | 23 ± 9
2 | CCC[S+]([O-])c1ccc2[nH]c(NC(=O)OC)nc2c1 (centres unmarked) [ABZSO, albendazole sulfoxide] | 19 ± 8
